2 compounds from US20090062255A1, “TUMOR-TARGETING EVALUATION METHODOLOGY AND COMPOUNDS RELATED THERETO” (THALLION PHARMACEUTICALS INC., priority 2007, published 2009) can be followed below.

Like-named read-outs stand apart in the source and are kept apart here.

Data set [1] concerns HT-29, SF268, MDA-MB-231 and PC-3 cell lines. The data set is described as follows: In vitro cytotoxic activity against four cell lines (overall statement). The format is cell-based. The following applies: second test. From the text: Procedures used for each series of tests are described below.
Compound 2 has an unexpected increase in cytotoxic activity compared to parent Compound 1. […] Cytotoxic activity (GI50) of Compound 2 for the other three strains was outside the expected range of concentrations used in the first tests.

Data set [2] concerns ERK phosphorylation, human pancreatic MiaPaCa-2 cell line (mutated K-Ras). The data set is described as follows: EGF-stimulated ERK phosphorylation in MiaPaCa-2 cells. The format is cell-based. From the text: To evaluate whether ECO-4601 interferes with K-Ras signalling, the human pancreatic MiaPaCa-2 cell line, a tumor cell line known to express mutated K-Ras, was employed.

Data set [3] concerns 60 different human tumor cell lines. The data set is described as follows: NCI in vitro screening, 60 human tumor cell lines. Format: cell-based. The conditions noted are these: for GI50: Homo sapiens. From the text: A study measuring the in vitro cytotoxic activity of Compound 1 was first performed by the NCI (National Cancer Institute, U.S. National Institutes of Health, Bethesda, Md., USA) against a panel of human cancer cell lines. This screen utilizes 60 different human tumor cell lines, representing cancers of the blood, skin, lung, colon, brain, ovary, breast, prostate, and kidney (More information available at: http://dtp.nci.nih.gov/branches/btb/ivclsp.html.) The compound was sent and tested on three occasions (Mar. 31, 2003; Dec. 1, 2003; Mar. 27, 2007).

Data set [4] has as its system phosphorylation of Raf-1 and ERK1/2 (Ras-MAPK signaling pathway). The data set is described as follows: Western blot of EGF-induced Raf-1 and ERK1/2 phosphorylation in tumor cells. The following applies: 10 μM. Format: cell-based, human. The method, then: The effect of ECO-4601 on downstream events of Ras signaling was subsequently examined by monitoring the phosphorylation levels of Raf-1 and ERK1/2 by Western blot analysis. To study the effect of ECO-4601 on the Ras-MAPK signaling pathway, exponentially growing cells (human breast MCF-7 tumor cells, human breast MDA-MB-231 tumor cells, human glioma U 87-MG tumor cells and human prostate PC-3 tumor cells) were seeded onto 60 mm tissue culture dishes (0.5 to 0.8×10^6 cells per dish) for 24 h. The media was removed and cells were treated with 10 μM ECO-4601 in culture medium supplemented with 0.1% FBS for 30 min, 1 h, 4 h and 6 h, and subsequently exposed to EGF at 50 ng/mL for 10 min at 37° C. Control plates consisted of cells incubated in culture medium containing 0.1% FBS and 0.05% DMSO (vehicle) with or without EGF stimulation. At the end of each treatment, media was removed and cells rinsed with ice-cold PBS. Cells were then harvested by scraping and cell pellets were lysed in ice-cold RIPA buffer for 20 minutes on ice. Unsolubilized material was pelleted and discarded. The protein concentration of each lysate was quantified using the Bio-Rad protein assay (Bio-Rad Laboratories). Equivalent amounts of protein (20-30 μg protein) were separated on 10% or 12% SDS-PAGE under reducing conditions, transferred onto nitrocellulose membranes (0.2 μm; Bio-Rad Laboratories) and blotted as above with phospho-c-Raf (Ser338) and c-Raf (Cell Signaling Technology Inc., Boston, Mass.), phospho-p44/42 (Thr2O2/Tyr204, p-ERK1/2) and p44/42 (ERK1/2) MAP Kinases (Cell Signaling Technology Inc.) and GAPDH (SantaCruz Biotechnology Inc.).
For orientation: Immunoblotting shows a protein as a band on a membrane.

The subject of data set [5] is genes involved in steroid biosynthesis, cholesterol transport/metabolism, signal transduction and apoptosis. The data set is described as follows: Gene expression in animals treated with Compound 1. The conditions noted are these: in vivo.
In data set [6] the test system is U 373 astrocytoma cell line. The data set is described as follows: MTT cytotoxicity, U 373 cell line. The format is cell-based. The following applies: U373 MG, 96 h, Human. The method, then: (§1) The cytotoxic activity of Compound 1 was further evaluated using a panel of brain tumor cell lines. This study was performed in collaboration with INSERM (Grenoble, France). Tumor cells (5,000 to 10,000 cells per well depending on their doubling time) were plated in 96-well flat-bottom plates and incubated for 24 hours before treatment. Tumor cells were then incubated for 96 hours with seven different concentrations of Compound 1: […], 0.01, and 0.001 μM. The in vitro cytotoxic activity was determined by a standard MTT assay.

Data set [7] concerns human uterine sarcoma MES-SA. The data set is described as follows: Growth inhibitory MTT assay, MES-SA. Format: cell-based. The conditions noted are these: 72 hours, treated over control. The method, then: (§2) Growth inhibitory activity of ECO-4601 (Compound 1) and other dibenzodiazepinone analogs was evaluated on a panel of 4 human tumor cell lines: the human uterine sarcoma MES-SA and its doxorubicin-resistant P-glycoprotein over-expressing variant, MES-SA/DX5 as well as non-aggressive and highly aggressive human breast cell lines, MCF-7 and MDA-MB-231, respectively. These four cell lines were obtained from the American Type Culture Collection (Manassas, Va.) and cultured in RPMI plus 10% fetal bovine serum (FBS) and maintained at 37° C. with 5% CO2.
(§3) Exponentially growing cells (5,000 cells per well time; cell number determined with a hemocytometer) were seeded in 96-well flat-bottom plates and allowed to grow overnight. Cells were then incubated for 72 hours with three different concentrations of ECO-4601 or analogs: 30,10, and 3 μM. The in vitro growth inhibitory activity was determined by a commercial MTT assay. All measurements were done in quadruplicate and each experiment was performed 2-3 times. The lower the value, the more cytotoxic is the compound.
In general terms: Tetrazolium dyes change colour on reduction, which living cells bring about.

Data set [8] concerns the target T1, human c-RAF (Homo sapiens, UniProt P04049).
T1 construct: purchased Upstate (Kinase Profiler Service; Dundee, UK)
The data set is described as follows: Upstate Kinase Profiler, c-RAF. The format is biochemical. The procedure:
Unlike current Ras signalling pathway inhibitors, ECO-4601 is not a direct kinase inhibitor. This was documented by evaluating the effect of ECO-4601 on human EGFR, c-RAF, MEK1, MAPK1 (ERK1) and MAPK2 (ERK2) kinase-activity (Upstate Kinase Profiler™ Service; Dundee, UK). ECO-4601 was tested at 0.5 μM and 5 μM in a final volume of 25 μL according to standard protocols developed by Upstate Ltd. Briefly, purified recombinant human enzymes were incubated with 25 mM Tris pH 7.5 containing EGTA, a specific substrate and γ-^32P-ATP. The reaction was initiated with MgATP mix and incubated for 40 minutes at RT. The reaction was stopped by the addition of 5 μL of a 3% phosphoric acid solution; aliquots were spotted on filters and counted. Detailed procedures are available on the Millipore Upstate website.

In data set [9] the test system is human breast cell line MCF-7. The data set is described as follows: Growth inhibitory MTT assay, MCF-7. The format is cell-based. The conditions noted are these: 72 hours, treated over control. The procedure: as §2, §3
In data set [10] the test system is 9L gliosarcoma cell line. The data set is described as follows: MTT cytotoxicity, 9L cell line. Format: cell-based. The following applies: 96 h, Rat. The method, then: as §1

T1 sequence (P04049 whole entry): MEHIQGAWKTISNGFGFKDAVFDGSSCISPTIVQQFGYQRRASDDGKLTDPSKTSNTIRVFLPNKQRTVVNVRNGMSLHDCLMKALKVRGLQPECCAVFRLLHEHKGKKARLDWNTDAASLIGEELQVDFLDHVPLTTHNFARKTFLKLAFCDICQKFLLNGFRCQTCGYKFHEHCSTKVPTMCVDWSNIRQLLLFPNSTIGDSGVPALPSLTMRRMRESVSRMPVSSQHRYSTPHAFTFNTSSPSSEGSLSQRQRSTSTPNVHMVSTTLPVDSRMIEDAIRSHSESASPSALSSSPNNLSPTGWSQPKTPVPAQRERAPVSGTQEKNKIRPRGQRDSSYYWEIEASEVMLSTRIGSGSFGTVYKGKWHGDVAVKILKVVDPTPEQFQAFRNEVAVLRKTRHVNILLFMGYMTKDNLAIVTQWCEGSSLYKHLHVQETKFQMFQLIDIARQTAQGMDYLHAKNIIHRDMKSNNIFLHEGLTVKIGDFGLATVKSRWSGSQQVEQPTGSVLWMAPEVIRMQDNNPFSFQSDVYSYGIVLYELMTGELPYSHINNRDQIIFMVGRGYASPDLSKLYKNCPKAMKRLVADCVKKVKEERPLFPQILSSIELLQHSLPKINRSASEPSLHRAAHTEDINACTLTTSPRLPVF

For the compound `CC(C)=CCC/C(C)=C/CC/C(C)=C/CN1C(=O)c2cccc(O)c2N(C)c2c(O)cc(O)cc21` [Compound 2, 10-farnesyl-4,6,8-trihydroxy-5-methyl-5,10-dihydro-dibenzo[b,e][1,4]diazepin-11-one], in [1], the “increase in potency compared to Compound 1” value was determined as 100 fold.

The GI50 is the concentration at which growth is held to half of that of the control. The IC50 is the midpoint of a concentration-inhibition curve. Regarding `CC(C)=CCC/C(C)=C/CC/C(C)=C/CN1C(=O)c2cccc(O)c2Nc2c(O)cc(O)cc21` [Compound 1, 10-farnesyl-4,6,8-trihydroxy-5,10-dihydrodibenzo[b,e][1,4]diazepin-11-one], in data set [2], the “inhibition of EGF-stimulated ERK phosphorylation” value is “dose and time dependent inhibition”. Further, the “cytotoxic activity in NCI in vitro screening (in words)” value in data set [3] (60 cell lines) was “low micromolar range”. Also, the concentration for 50% growth inhibition (GI50) in data set [3] (Breast carcinoma cell, breast carcinoma cell lines, read-out: GI50 range) lay within 1.4 to 16.3 µM; in [3] (CNS (glioblastoma) cell lines, read-out: GI50 range), 2 to 6.5 µM; in data set [3] (Colon carcinoma cell, colon carcinoma cell lines, read-out: GI50 range), 3 to 17.3 µM; in [3] (Ovarian carcinoma cell, ovarian carcinoma cell lines, read-out: GI50 range), 2.5 to 6.2 µM; in data set [3] (leukemia cell lines, read-out: GI50 range), 0.9 to 5 µM; in [3] (melanoma cell lines, read-out: GI50 range), 1.8 to 8.1 µM. The GI50 was in the range of 1.9 to 10.8 µM in [3] (non-small cell lung carcinoma cell lines, read-out: GI50 range); 3.5 to 9.3 µM in data set [3] (prostate carcinoma cell lines, read-out: GI50); 2.9 to 14.5 µM in data set [3] (renal carcinoma cell lines, read-out: GI50 range). For the same compound, the “amount of total Raf-1” value in [4] was “decrease”. Further, the “time to complete inhibition of protein phosphorylation” value in data set [4] is no more than 6 h. Further, in [4] (MCF-7, MDA-MB-231, U 87-MG and PC-3 cells), the “inhibition of EGF-induced phosphorylation of Raf-1 and ERK1/2” value is “strong inhibition”. In addition, in [5], the “expression of several genes in treated animals” value is listed as “increased expression”. Moreover, the half-inhibitory concentration (IC50) was 3.8 ± 1.4 µM in [6] and 8.3 ± 3.8 µM in data set [10]. For the same compound, the “% T/C at 10 μM” value in data set [7] is listed as 78%; in data set [9], 44%. In data set [8] (0.5 μM and 5 μM), the “direct inhibition of c-Raf kinase activity (in words)” value is reported as “does not directly inhibit”. Besides, the activity at 0.5 µM in [8] (c-Raf, 0.5 μM, % of enzyme activity over positive control, read-out: Kinase Activity (%) ± SD) was determined as 114 ± 12%. Further, the activity at 5 µM in [8] (c-Raf, 5 μM, % of enzyme activity over positive control, read-out: Kinase Activity (%) ± SD) amounted to 94 ± 2%.
